# Measured values from ChEMBL document CHEMBL3885881, “DrugMatrix”.
# Organism: Rattus norvegicus
# Test: DrugMatrix - Regimen: Daily Repeat
# Assay type: toxicity, organism-based, Sprague-Dawley
# Parameters: regimen Daily Repeat, gender Male, age 6-8 weeks
# Settings: in vivo, sc, route subcutaneous, […]; for ABSOLUTE BASOPHIL / ABSOLUTE EOSINOPHIL / ABSOLUTE LYMPHOCYTE / ABSOLUTE MONOCYTE / ABSOLUTE SEGMENTED NEUTROPHIL / BASOPHIL / EOSINOPHIL / ERYTHROCYTE COUNT / HEMATOCRIT / HEMOGLOBIN / LEUKOCYTE COUNT / LYMPHOCYTE / MEAN CORPUSCULAR HEMOGLOBIN / MEAN CORPUSCULAR HEMOGLOBIN CONCENTRATION / MEAN CORPUSCULAR VOLUME / MONOCYTE / NEUTROPHIL / NUCLEATED RED BLOOD CELLS / PLATELET COUNT: tissue Blood; for ALANINE AMINOTRANSFERASE / ALBUMIN / ALKALINE PHOSPHATASE / ASPARTATE AMINOTRANSFERASE / BLOOD UREA NITROGEN / CARBON DIOXIDE / CHLORIDE / CHOLESTEROL / CREATINE PHOSPHOKINASE / CREATININE / GLUCOSE / LACTATE DEHYDROGENASE / LIPASE / PHOSPHORUS / POTASSIUM / SODIUM / TOTAL BILIRUBIN / TOTAL PROTEIN / URIC ACID: tissue Plasma
# [1] = 50 mg/kg, 120 h, dose level Low, time 5 day
# [2] = 150 mg/kg, 72 h, dose level M2, time 3 day
# [3] = 150 mg/kg, 120 h, dose level M2, time 5 day
compound,measurement,setting,value
CC(C)(c1ccc(O)cc1)c1ccc(O)cc1 [BISPHENOL A],ABSOLUTE BASOPHIL,[1],0 CELLS/uL
same,ABSOLUTE EOSINOPHIL,[1],0 CELLS/uL
same,ABSOLUTE LYMPHOCYTE,[1],15258.67 CELLS/uL
same,ABSOLUTE MONOCYTE,[1],508.33 CELLS/uL
same,ABSOLUTE SEGMENTED NEUTROPHIL,[1],1433 CELLS/uL
same,BASOPHIL,[1],0%
same,EOSINOPHIL,[1],0%
same,ERYTHROCYTE COUNT,[1],5.65 x10E6/uL
same,HEMATOCRIT,[1],35.13%
same,HEMOGLOBIN,[1],13.73 G/DL
same,LEUKOCYTE COUNT,[1],17.2 x10E3/uL
same,LYMPHOCYTE,[1],89%
same,MEAN CORPUSCULAR HEMOGLOBIN,[1],24.33 pg
same,MEAN CORPUSCULAR HEMOGLOBIN CONCENTRATION,[1],39.07 G/DL
same,MEAN CORPUSCULAR VOLUME,[1],62.23 fL
same,MONOCYTE,[1],2.33%
same,NEUTROPHIL,[1],8.67%
same,NUCLEATED RED BLOOD CELLS,[1],0 /100WBC
same,PLATELET COUNT,[1],1289 x10E3/uL
same,ALANINE AMINOTRANSFERASE,[1],62.67 u/L
same,ALBUMIN,[1],3.57 G/DL
same,ALKALINE PHOSPHATASE,[1],300 u/L
same,ASPARTATE AMINOTRANSFERASE,[1],93 u/L
same,BLOOD UREA NITROGEN,[1],14.67 mg/dL
same,CARBON DIOXIDE,[1],24 mmol/L
same,CHLORIDE,[1],103.67 MEQ/L
same,CHOLESTEROL,[1],48.67 mg/dL
same,CREATINE PHOSPHOKINASE,[1],675.67 u/L
same,CREATININE,[1],0.15 mg/dL
same,GLUCOSE,[1],190.67 mg/dL
same,LACTATE DEHYDROGENASE,[1],256.67 u/L
same,LIPASE,[1],11.67 u/L
same,PHOSPHORUS,[1],13.4 mg/dL
same,POTASSIUM,[1],6.14 MEQ/L
same,SODIUM,[1],142.27 MEQ/L
same,TOTAL BILIRUBIN,[1],0.1 mg/dL
same,TOTAL PROTEIN,[1],5.27 G/DL
same,URIC ACID,[1],2.23 mg/dL
same,ABSOLUTE BASOPHIL,[2],0 CELLS/uL
same,ABSOLUTE EOSINOPHIL,[2],21 CELLS/uL
same,ABSOLUTE LYMPHOCYTE,[2],7705 CELLS/uL
same,ABSOLUTE MONOCYTE,[2],0 CELLS/uL
same,ABSOLUTE SEGMENTED NEUTROPHIL,[2],574 CELLS/uL
same,BASOPHIL,[2],0%
same,EOSINOPHIL,[2],0.33%
same,ERYTHROCYTE COUNT,[2],5.46 x10E6/uL
same,HEMATOCRIT,[2],34.77%
same,HEMOGLOBIN,[2],13.53 G/DL
same,LEUKOCYTE COUNT,[2],8.3 x10E3/uL
same,LYMPHOCYTE,[2],92.33%
same,MEAN CORPUSCULAR HEMOGLOBIN,[2],24.8 pg
same,MEAN CORPUSCULAR HEMOGLOBIN CONCENTRATION,[2],38.97 G/DL
same,MEAN CORPUSCULAR VOLUME,[2],63.67 fL
same,MONOCYTE,[2],0%
same,NEUTROPHIL,[2],7.33%
same,NUCLEATED RED BLOOD CELLS,[2],0 /100WBC
same,PLATELET COUNT,[2],1030 x10E3/uL
same,ALANINE AMINOTRANSFERASE,[2],54.67 u/L
same,ALBUMIN,[2],3.73 G/DL
same,ALKALINE PHOSPHATASE,[2],286.67 u/L
same,ASPARTATE AMINOTRANSFERASE,[2],73 u/L
same,BLOOD UREA NITROGEN,[2],9.33 mg/dL
same,CARBON DIOXIDE,[2],21 mmol/L
same,CHLORIDE,[2],96 MEQ/L
same,CHOLESTEROL,[2],72.67 mg/dL
same,CREATINE PHOSPHOKINASE,[2],254.33 u/L
same,CREATININE,[2],0.11 mg/dL
same,GLUCOSE,[2],143 mg/dL
same,LACTATE DEHYDROGENASE,[2],106.33 u/L
same,LIPASE,[2],8 u/L
same,PHOSPHORUS,[2],11.83 mg/dL
same,POTASSIUM,[2],5.68 MEQ/L
same,SODIUM,[2],141.4 MEQ/L
same,TOTAL BILIRUBIN,[2],0.1 mg/dL
same,TOTAL PROTEIN,[2],5.57 G/DL
same,URIC ACID,[2],0.53 mg/dL
same,ABSOLUTE BASOPHIL,[3],0 CELLS/uL
same,ABSOLUTE EOSINOPHIL,[3],91.33 CELLS/uL
same,ABSOLUTE LYMPHOCYTE,[3],12830 CELLS/uL
same,ABSOLUTE MONOCYTE,[3],122 CELLS/uL
same,ABSOLUTE SEGMENTED NEUTROPHIL,[3],2190 CELLS/uL
same,BASOPHIL,[3],0%
same,EOSINOPHIL,[3],0.67%
same,ERYTHROCYTE COUNT,[3],5.93 x10E6/uL
same,HEMATOCRIT,[3],36.47%
same,HEMOGLOBIN,[3],14.23 G/DL
same,LEUKOCYTE COUNT,[3],15.23 x10E3/uL
same,LYMPHOCYTE,[3],85%
same,MEAN CORPUSCULAR HEMOGLOBIN,[3],24.1 pg
same,MEAN CORPUSCULAR HEMOGLOBIN CONCENTRATION,[3],39.03 G/DL
same,MEAN CORPUSCULAR VOLUME,[3],61.63 fL
same,MONOCYTE,[3],0.67%
same,NEUTROPHIL,[3],13.67%
same,NUCLEATED RED BLOOD CELLS,[3],0.33 /100WBC
same,PLATELET COUNT,[3],1323.33 x10E3/uL
same,ALANINE AMINOTRANSFERASE,[3],59 u/L
same,ALBUMIN,[3],3.77 G/DL
same,ALKALINE PHOSPHATASE,[3],246.33 u/L
same,ASPARTATE AMINOTRANSFERASE,[3],81.67 u/L
same,BLOOD UREA NITROGEN,[3],13.33 mg/dL
same,CARBON DIOXIDE,[3],25.67 mmol/L
same,CHLORIDE,[3],102.67 MEQ/L
same,CHOLESTEROL,[3],61.67 mg/dL
same,CREATINE PHOSPHOKINASE,[3],253 u/L
same,CREATININE,[3],0.21 mg/dL
same,GLUCOSE,[3],193 mg/dL
same,LACTATE DEHYDROGENASE,[3],151.67 u/L
same,LIPASE,[3],10 u/L
same,PHOSPHORUS,[3],13.27 mg/dL
same,POTASSIUM,[3],5.91 MEQ/L
same,SODIUM,[3],142.47 MEQ/L
same,TOTAL BILIRUBIN,[3],0.13 mg/dL
same,TOTAL PROTEIN,[3],5.57 G/DL
same,URIC ACID,[3],2.37 mg/dL
